The values that follow come from patent US11708348B2, “Protease inhibitors for treatment of coronavirus infections” (The Scripps Research Institute, priority 2021, dated 2023).

The subject of one test is SARS-CoV-2 strain USA-WA1/2020. The experiment in a line: microbe, parasite or virus in culture. Type of test: cell-based. To be noted: Severe acute respiratory syndrome coronavirus 2, HeLa-ACE2, 24 h, HeLa-ACE2 cells, SARS-CoV-2 infection, 24 h; cells given as a bound; read-out: EC50, uM (Hela).
As a reminder, the EC50 is the concentration at which the effect is half-maximal. As to `CC(C)C[C@H](NC(=O)OC/C=C/c1cccc(Cl)c1)C(=O)N[C@@H](C[C@@H]1CCNC1=O)C(=O)COc1c(F)c(F)cc(F)c1F` [Compound 139, (E)-3-(3-chlorophenyl)allyl ((S)-4-methyl-1-oxo-1-(((S)-3-oxo-1-((S)-2-oxopyrrolidin-3-yl)-4-(2,3,5,6-tetrafluorophenoxy)butan-2-yl)amino)pentan-2-yl)carbamate], the EC50 was above 1 µM.

The same test, now with this note: Severe acute respiratory syndrome coronavirus 2, HeLa-ACE2, 24 h, HeLa-ACE2 cells, SARS-CoV-2 infection, 24 h; class symbols; read-out: EC50, uM (Hela).
Take `CC(C)C[C@H](NC(=O)c1ccc2c(c1)OC(F)(F)O2)C(=O)N[C@@H](C[C@@H]1CCNC1=O)C(=O)COC(F)(F)F` [Compound 153, 2,2-difluoro-N-((S)-4-methyl-1-oxo-1-(((S)-3-oxo-1-((S)-2-oxopyrrolidin-3-yl)-4-(trifluoromethoxy)butan-2-yl)amino)pentan-2-yl)benzo[d][l,3]dioxole-5-carboxamide]: the concentration for a half-maximal effect (EC50) is below 0.05 µM.

`COCC1(NC(=O)C(=O)N[C@@H](CC(C)C)C(=O)N[C@@H](C[C@@H]2CCNC2=O)C(=O)COC(F)(F)F)CC1` [Compound 262, Nl-(1-(methoxymethyl)-cyclopropyl)-N2-((S)-4-methyl-1-oxo-1-(((S)-3-oxo-1-((S)-2-oxopyrrolidin-3-yl)-4-(trifluoromethoxy)butan-2-yl)amino)pentan-2-yl)oxalamide]: the concentration giving a half-maximal response (EC50) lay within 0.05 to 0.2 µM. Same read-out and setting: next, `CC(C)C[C@@H](OC(F)F)C(=O)N1CC2(CC2)C[C@H]1C(=O)N[C@@H](C[C@@H]1CCNC1=O)C(=O)COC(F)(F)F` [Compound 333, (S)-5-((R)-2-(difluoromethoxy)-4-methylpentanoyl)-N—((S)-3-oxo-1-((S)-2-oxopyrrolidin-3-yl)-4-(trifluoromethoxy)butan-2-yl)-5-azaspiro[2.4]heptane-6-carboxamide]: below 0.05 µM. On the same count and under the same terms, next, `CC(C)C[C@H](NC(=O)c1cc2cnccc2[nH]1)C(=O)N[C@@H](C[C@@H]1CCNC1=O)C(=O)COc1c(F)c(F)cc(F)c1F` [Compound 29, N-((S)-4-methyl-1-oxo-1-(((S)-3-oxo-1-((S)-2-oxopyrrolidin-3-yl)-4-(2,3,5,6-tetrafluorophenoxy)butan-2-yl)amino)pentan-2-yl)-1H-pyrrolo[3,2-c]pyridine-2-carboxamide]: below 0.05 µM; `CC1(C)[C@@H]2[C@@H](C(=O)N[C@@H](C[C@@H]3CCNC3=O)C(=O)COC(F)(F)F)N(C(=O)[C@H]3COCCO3)C[C@@H]21` [Compound 306, (1R,2S,5S)-3-((R)-1,4-dioxane-2-carbonyl)-6,6-dimethyl-N-((S)-3-oxo-1-((S)-2-oxopyrrolidin-3-yl)-4-(trifluoromethoxy)butan-2-yl)-3-azabicyclo[3.1.0]-hexane-2-carboxamide]: 0.05 to 0.2 µM. For `CC[C@H](O)C(=O)N1C[C@H]2[C@@H]([C@H]1C(=O)N[C@@H](C[C@@H]1CCNC1=O)C(=O)COC(F)(F)F)C2(C)C` [Compound 370, (1R,2S,5S)-3-((S)-2-hydroxybutanoyl)-6,6-dimethyl-N-((S)-3-oxo-1-((S)-2-oxopyrrolidin-3-yl)-4-(trifluoromethoxy)butan-2-yl)-3-azabicyclo[3.1.0]-hexane-2-carboxamide], the 50% effective concentration (EC50) is 0.05 to 0.2 µM. With `CC(C)(C)C[C@H](NC(=O)C(=O)Nc1ccccc1C(C)(C)C)C(=O)N[C@@H](C[C@@H]1CCNC1=O)C(=O)COC(F)(F)F` [Compound 173, N1-(2-(tert-butyl)phenyl)-N2-((S)-4,4-dimethyl-1-oxo-1-(((S)-3-oxo-1-((S)-2-oxopyrrolidin-3-yl)-4-(trifluoromethoxy)butan-2-yl)amino)pentan-2-yl)oxalamide], the EC50 was below 0.05 µM. Same read-out and setting: next, `CC(C)C[C@H](NC(=O)c1cc2cccnc2[nH]1)C(=O)N[C@@H](C[C@@H]1CCNC1=O)C(=O)COC(F)(F)F` [Compound 194, N-((S)-4-methyl-1-oxo-1-(((S)-3-oxo-1-((S)-2-oxopyrrolidin-3-yl)-4-(trifluoromethoxy)butan-2-yl)amino)pentan-2-yl)-1H-pyrrolo[2,3-b]pyridine-2-carboxamide]: below 0.05 µM. On the same count and under the same terms, with `Cc1cccc(C)c1NC(=O)C(=O)N[C@@H](CC(C)C)C(=O)N[C@@H](C[C@@H]1CCNC1=O)C(=O)COc1c(F)c(F)cc(F)c1F` [Compound 64, N1-(2,6-dimethylphenyl)-N2-((S)-4-methyl-1-oxo-1-(((S)-3-oxo-1-((S)-2-oxopyrrolidin-3-yl)-4-(2,3,5,6-tetrafluorophenoxy)butan-2-yl)amino)pentan-2-yl)oxalamide] the figure was below 0.05 µM.

Still in this test, the particulars now being: Severe acute respiratory syndrome coronavirus 2, HeLa-ACE2, 24 h, HeLa-ACE2 cells, SARS-CoV-2 infection, 24 h; given as bound; read-out: EC50, uM (Hela).
Regarding `CC(C)(C)NC(=O)C(=O)N1C[C@H]2C[C@]1(C(=O)N[C@@H](C[C@@H]1CCNC1=O)C(=O)COC(F)(F)F)C2` [Compound 560, (1s,4R)-2-(2-(tert-butylamino)-2-oxoacetyl)-N-((S)-3-oxo-1-((S)-2-oxopyrrolidin-3-yl)-4-(trifluoromethoxy)butan-2-yl)-2-azabicyclo-[2.1.1]hexane-1-carboxamide], the concentration giving a half-maximal response (EC50) was above 1 µM.

The same test, now with this note: Severe acute respiratory syndrome coronavirus 2, HeLa-ACE2, 24 h, HeLa-ACE2 cells, SARS-CoV-2 infection, 24 h; read-out: EC50, uM (Hela).
Turning to `O=C1NCC[C@H]1C[C@H](NC(=O)[C@@H]1CC2(CC2)CN1C(=O)c1cc(C(F)F)on1)C(=O)COC(F)(F)F` [Compound 572, (S)-5-(5-(difluoromethyl)-isoxazole-3-carbonyl)-N-((S)-3-oxo-1-((S)-2-oxopyrrolidin-3-yl)-4-(trifluoromethoxy)butan-2-yl)-5-azaspiro[2.4]-heptane-6-carboxamide], the concentration for a half-maximal effect (EC50) was below 0.05 µM.

As for `CC(C)C[C@H](NC(=O)C(=O)NC12CC(C(F)(F)F)(C1)C2)C(=O)N[C@@H](C[C@@H]1CCNC1=O)C(=O)COC(F)(F)F` [Compound 596, N1-((S)-4-methyl-1-oxo-1-(((S)-3-oxo-1-((S)-2-oxopyrrolidin-3-yl)-4-(trifluoromethoxy)butan-2-yl)amino)pentan-2-yl)-N2-(3-(trifluoromethyl)bi-cyclo[1.1.1]pentan-1-yl)oxalamide], the half-maximal effective concentration (EC50) was below 0.05 µM. The same measure, in the same setting: next, `CC1(CC(=O)N2CC3(CC3)C[C@H]2C(=O)N[C@@H](C[C@@H]2CCNC2=O)C(=O)COC(F)(F)F)CCCC1` [Compound 711, (S)-5-(2-(l-methylcyclopentyl)acetyl)-N-((S)-3-oxo-1-((S)-2-oxopyrrolidin-3-yl)-4-(trifluoromethoxy)butan-2-yl)-5-azaspiro[2.4]heptane-6-carboxamide]: below 0.05 µM; `CC1(C)[C@@H]2[C@@H](C(=O)N[C@@H](C[C@@H]3CCNC3=O)C(=O)COC(F)(F)F)N(C(=O)C(=O)NC3CC(F)(F)C3)C[C@@H]21` [Compound 536, (1R,2S,5S)-3-(2-((3,3-difluorocyclo-butyl)amino)-2-oxoacetyl)-6,6-dimethyl-N-((S)-3-oxo-1-((S)-2-oxopyrrolidin-3-yl)-4-(trifluoromethoxy)butan-2-yl)-3-azabicyclo-[3.1.0]hexane-2-carboxamide]: 0.05 to 0.2 µM. With `O=C1NCC[C@H]1C[C@@H](NC(=O)[C@@H]1[C@H]2CCC[C@H]2CN1C(=O)c1cc2cc(F)ccc2[nH]1)C(=O)COC(F)(F)F` [Compound 604, (1S,3aR,6aS)-2-(5-fluoro-1H-indole-2-carbonyl)-N-((R)-3-oxo-1-((S)-2-oxopyrrolidin-3-yl)-4-(trifluoromethoxy)butan-2-yl)octahydrocyclopenta[c]pyrrole-1-carboxamide], the 50% effective concentration (EC50) was below 0.05 µM.

With `CC(C)(F)C[C@@H](O)C(=O)N1CC2(CC2)C[C@H]1C(=O)N[C@@H](C[C@@H]1CCNC1=O)C(=O)COC(F)(F)F` [Compound 754, (S)-5-((R)-4-fluoro-2-hydroxy-4-methylpentanoyl)-N-((S)-3-oxo-1-((S)-2-oxopyrrolidin-3-yl)-4-(trifluoromethoxy)butan-2-yl)-5-azaspiro[2.4]heptane-6-carboxamide], the half-maximal effective concentration (EC50) lay in the range of 0.05 to 0.2 µM. Same read-out and setting: with `O=C(Nc1ccccc1F)C(=O)N1CCCCC[C@H]1C(=O)N[C@@H](C[C@@H]1CCNC1=O)C(=O)COC(F)(F)F` [Compound 584, (S)-1-(2-((2-fluorophenyl)amino)-2-oxoacetyl)-N-((S) -3-oxo-1-((S)-2-oxopyrrolidin-3-yl)-4-(trifluoromethoxy)butan-2-yl)azepane-2-carboxamide] the figure was below 0.05 µM; with `CC1(C)[C@@H]2[C@@H](C(=O)N[C@@H](C[C@@H]3CCNC3=O)C(=O)COC(F)(F)F)N(C(=O)[C@H](O)c3ccccc3F)C[C@@H]21` [Compound 407, (1R,2S,5S)-3-((R)-2-(2-fluorophenyl)-2-hydroxyacetyl)-6,6-dimethyl-N-((S)-3-oxo-1-((S)-2-oxopyrrolidin-3-yl)-4-(trifluoromethoxy)butan-2-yl)-3-azabicyclo[3.1.0]hexane-2-carboxamide], below 0.05 µM. Same read-out and setting: next, `O=C1NCC[C@H]1C[C@H](NC(=O)[C@@H]1CC2(CC2)CN1C(=O)CC(F)(F)C(F)F)C(=O)COC(F)(F)F` [Compound 684, (S)-N-((S)-3-oxo-1-((S)-2-oxopyrrolidin-3-yl)-4-(trifluoromethoxy)butan-2-yl)-5-(3,3,4,4-tetrafluorobutanoyl)-5-azaspiro[2.4]heptane-6-carboxamide]: 0.05 to 0.2 µM; `CC(C)C[C@H](C)C(=O)N1CC2(CC2)C[C@H]1C(=O)N[C@@H](C[C@@H]1CCNC1=O)C(=O)COC(F)(F)F` [Compound 748, (S)-5-((S)-2,4-dimethylpentanoyl)-N-((S)-3-oxo-1-((S)-2-oxopyrrolidin-3-yl)-4-(trifluoromethoxy)butan-2-yl)-5-azaspiro[2.4]heptane-6-carboxamide]: 0.05 to 0.2 µM; `CC(C)(F)c1cc(C(=O)NC(CC2CCOCC2)C(=O)N[C@@H](C[C@@H]2CCNC2=O)C(=O)COC(F)(F)F)no1` (stereo partly drawn) [Compound 499, 5-(2-fluoropropan-2-yl)-N-(l-oxo-1-(((S)-3-oxo-1-((S)-2-oxopyrrolidin-3-yl)-4-(trifluoromethoxy)butan-2-yl)amino)-3-(tetrahydro-2H-pyran-4-yl)propan-2-yl)isoxazole-3-carboxamide]: 0.05 to 0.2 µM.
